Data from publication PMC4826192 (Oncotarget, 2015).

Key:
p-AKT (Ser473) = experiment: Western immunoblotting of downstream effector in sarcoma cells; assay type: cell-based; conditions: increasing concentrations of MGCD516; western blot
Experimental: […]. Cell viability was measured using Dojindo Cell Counting Kit 8. Dose response graphs were generated as a percentage of the no drug control. Error bars represent standard error mean. Combined data from three independent experiments is shown. B. Indicated cell lines were grown to 60% confluency in serum free media overnight. […] After the drug treatments, cells were stimulated in drug free media containing 10%FBS. Media containing no FBS was used as unstimulated control. […] Representative western blots from two independent experiments are shown. ND=No Drug, Uns=Unstimulated control.
. Cell viability was measured using Dojindo Cell Counting Kit 8. Graphs were generated as a percentage of the no drug (ND) control. Error bars represent standard error mean. Combined data from at least two independent experiments is shown. Note: For Figure 4A, error bars are included; however, they are too small to be seen. C. Indicated cell lines were grown to 60% confluency in serum free media overnight. […] After the drug treatments, cells were stimulated in drug free media containing 10%FBS. […] Representative western blots from two independent experiments are shown. D. 1,000 cells were plated, in triplicate, onto 100mm dishes and treated the next day with the indicated drugs in media containing 10%FBS for 24 hours. […] Colonies were scored with ColCount software from Oxford Optronix (Abingdon, UK). […]

[1] = system: phosphorylation of c-Kit, IGF1-R, PDGFRβ, p-AKT (Ser473), p-S6 (Ser235/236); experiment: Western blot of xenograft tissue after 3 weeks of treatment
HCK = HCK (Homo sapiens, UniProt P08631); experiment: In vitro kinase inhibition profile (biochemical); conditions: read-out: Biochemical (IC50 nmol/L)
FAK = FAK (Homo sapiens, UniProt Q05397); experiment: In vitro kinase inhibition profile (biochemical); conditions: read-out: Biochemical (IC50 nmol/L)
RET = RET (Homo sapiens, UniProt P07949); experiment: In vitro kinase inhibition profile (biochemical); conditions: read-out: Biochemical (IC50 nmol/L)
PYK2 = PYK2 (Homo sapiens, UniProt Q14289); experiment: In vitro kinase inhibition profile (biochemical); conditions: read-out: Biochemical (IC50 nmol/L)
PDGFRα = PDGFRα (Homo sapiens, UniProt P16234); experiment: In vitro kinase inhibition profile (biochemical); conditions: read-out: Biochemical (IC50 nmol/L)
IGF1R = IGF1R (Homo sapiens, UniProt P08069); experiment: In vitro kinase inhibition profile (biochemical); conditions: read-out: Biochemical (IC50 nmol/L)
EPHA4 = EPHA4 (Homo sapiens, UniProt P54764); experiment: In vitro kinase inhibition profile (biochemical); conditions: read-out: Biochemical (IC50 nmol/L)
ERBB2 = ERBB2 (Homo sapiens, UniProt P04626); experiment: In vitro kinase inhibition profile (biochemical); conditions: read-out: Biochemical (IC50 nmol/L)
SRC = SRC (Homo sapiens, UniProt P12931); experiment: In vitro kinase inhibition profile (biochemical); conditions: read-out: Biochemical (IC50 nmol/L)
EPHA2 = EPHA2 (Homo sapiens, UniProt P29317); experiment: In vitro kinase inhibition profile (biochemical); conditions: read-out: Biochemical (IC50 nmol/L)
ROS = ROS (Homo sapiens, UniProt P08922); experiment: In vitro kinase inhibition profile (biochemical); conditions: read-out: Biochemical (IC50 nmol/L)
ABL = ABL (Homo sapiens, UniProt P00519); experiment: In vitro kinase inhibition profile (biochemical); conditions: read-out: Biochemical (IC50 nmol/L)
INSR = INSR (Homo sapiens, UniProt P06213); experiment: In vitro kinase inhibition profile (biochemical); conditions: read-out: Biochemical (IC50 nmol/L)
MPNST cell line = experiment: Colony formation assay; assay type: cell-based; conditions: 500 nmol/L, 24 hours treatment, 10 to 14 days drug-free
Experimental: . Cell viability was measured using Dojindo Cell Counting Kit 8. Graphs were generated as a percentage of the no drug (ND) control. Error bars represent standard error mean. Combined data from at least two independent experiments is shown. Note: For Figure 4A, error bars are included; however, they are too small to be seen. C. Indicated cell lines were grown to 60% confluency in serum free media overnight. […] After the drug treatments, cells were stimulated in drug free media containing 10%FBS. […] Representative western blots from two independent experiments are shown. D. 1,000 cells were plated, in triplicate, onto 100mm dishes and treated the next day with the indicated drugs in media containing 10%FBS for 24 hours. Following treatment, cells were cultured in drug-free media for 10 to 14 days. Colonies were scored with ColCount software from Oxford Optronix (Abingdon, UK). Combined data from the experiment carried out in triplicate is shown.
1,000 cells were plated, in triplicate, onto 100 mm dishes and allowed to adhere overnight. Cells were treated for 24 hours with the indicated drugs. Following treatment, cells were cultured in drug-free media for 10 to 14 days. The resulting colonies were fixed in 20% ethanol and stained with 2.5% crystal violet. Colonies were scored with ColCount software from Oxford Optronix (Abingdon, UK).

FYN = FYN (Homo sapiens, UniProt P06241); experiment: In vitro kinase inhibition profile (biochemical); conditions: read-out: Biochemical (IC50 nmol/L)
BTK = BTK (Homo sapiens, UniProt Q06187); experiment: In vitro kinase inhibition profile (biochemical); conditions: read-out: Biochemical (IC50 nmol/L)
DDR2 = DDR2 (Homo sapiens, UniProt Q16832); experiment: In vitro kinase inhibition profile (biochemical); conditions: read-out: Biochemical (IC50 nmol/L)
TIE2 = TIE2 (Homo sapiens, UniProt Q02763); experiment: In vitro kinase inhibition profile (biochemical); conditions: read-out: Biochemical (IC50 nmol/L)
RON = RON (Homo sapiens, UniProt Q04912); experiment: In vitro kinase inhibition profile (biochemical); conditions: read-out: Biochemical (IC50 nmol/L)
FGFR1 = FGFR1 (Homo sapiens, UniProt P11362); experiment: In vitro kinase inhibition profile (biochemical); conditions: read-out: Biochemical (IC50 nmol/L)
MPNST xenografts = experiment: MPNST mouse xenograft tumor growth; assay type: in vivo, ICR/SCID mice; conditions: MGCD516 15 mg/kg p.o., crizotinib 50 mg/kg i.p., imatinib 30 mg/kg i.p., QD 5 days a week
Experimental: […]. […] […]. Tumor size was measured twice weekly by caliper.

[2] = system: RTK phosphorylation (PDGFRα, PDGFRβ, IGF1-R, c-Met, Axl, ALK); experiment: Phospho-RTK proteome profiler array in sarcoma cells; conditions: 3 hours drug, 10% FBS stimulation 1 hour
JAK3 = JAK3 (Homo sapiens, UniProt P52333); experiment: In vitro kinase inhibition profile (biochemical); conditions: read-out: Biochemical (IC50 nmol/L)
VEGFR3 (FLT4) = VEGFR3 (FLT4) (Homo sapiens, UniProt P35916); experiment: In vitro kinase inhibition profile (biochemical); conditions: read-out: Biochemical (IC50 nmol/L)
ITK = ITK (Homo sapiens, UniProt Q08881); experiment: In vitro kinase inhibition profile (biochemical); conditions: read-out: Biochemical (IC50 nmol/L)
ARG = ARG (Homo sapiens, UniProt P42684); experiment: In vitro kinase inhibition profile (biochemical); conditions: read-out: Biochemical (IC50 nmol/L)
JAK2 = JAK2 (Homo sapiens, UniProt O60674); experiment: In vitro kinase inhibition profile (biochemical); conditions: read-out: Biochemical (IC50 nmol/L)
EPHB4 = EPHB4 (Homo sapiens, UniProt P54760); experiment: In vitro kinase inhibition profile (biochemical); conditions: read-out: Biochemical (IC50 nmol/L)
YES = YES (Homo sapiens, UniProt P07947); experiment: In vitro kinase inhibition profile (biochemical); conditions: read-out: Biochemical (IC50 nmol/L)

Chain of EPHA4 (P54764 20-986): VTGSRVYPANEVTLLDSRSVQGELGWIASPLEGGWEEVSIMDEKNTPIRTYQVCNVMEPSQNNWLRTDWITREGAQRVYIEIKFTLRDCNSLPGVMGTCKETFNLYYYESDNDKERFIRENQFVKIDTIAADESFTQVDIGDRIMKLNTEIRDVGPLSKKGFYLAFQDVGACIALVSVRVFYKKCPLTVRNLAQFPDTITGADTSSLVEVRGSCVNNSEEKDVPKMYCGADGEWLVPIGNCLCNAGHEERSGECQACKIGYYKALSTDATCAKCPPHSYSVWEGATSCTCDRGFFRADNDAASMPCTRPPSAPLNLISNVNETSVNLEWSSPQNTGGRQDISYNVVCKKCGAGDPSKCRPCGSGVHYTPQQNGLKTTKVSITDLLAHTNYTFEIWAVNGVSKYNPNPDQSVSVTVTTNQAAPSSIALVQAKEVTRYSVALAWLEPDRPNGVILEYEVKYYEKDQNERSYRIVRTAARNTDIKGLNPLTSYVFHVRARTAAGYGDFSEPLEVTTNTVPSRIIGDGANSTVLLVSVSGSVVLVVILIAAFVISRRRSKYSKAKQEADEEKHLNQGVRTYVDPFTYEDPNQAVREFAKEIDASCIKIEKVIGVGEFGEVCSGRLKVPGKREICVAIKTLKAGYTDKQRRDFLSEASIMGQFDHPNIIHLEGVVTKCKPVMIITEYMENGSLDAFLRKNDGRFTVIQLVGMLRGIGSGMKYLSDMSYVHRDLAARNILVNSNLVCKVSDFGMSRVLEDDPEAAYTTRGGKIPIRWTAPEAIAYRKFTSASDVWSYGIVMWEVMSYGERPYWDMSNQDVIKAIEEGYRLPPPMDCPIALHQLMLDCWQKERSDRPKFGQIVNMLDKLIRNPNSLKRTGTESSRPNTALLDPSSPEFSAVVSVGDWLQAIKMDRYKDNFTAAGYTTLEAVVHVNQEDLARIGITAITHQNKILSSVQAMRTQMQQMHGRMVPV
Chain of VEGFR3 (FLT4) (P35916 25-1363): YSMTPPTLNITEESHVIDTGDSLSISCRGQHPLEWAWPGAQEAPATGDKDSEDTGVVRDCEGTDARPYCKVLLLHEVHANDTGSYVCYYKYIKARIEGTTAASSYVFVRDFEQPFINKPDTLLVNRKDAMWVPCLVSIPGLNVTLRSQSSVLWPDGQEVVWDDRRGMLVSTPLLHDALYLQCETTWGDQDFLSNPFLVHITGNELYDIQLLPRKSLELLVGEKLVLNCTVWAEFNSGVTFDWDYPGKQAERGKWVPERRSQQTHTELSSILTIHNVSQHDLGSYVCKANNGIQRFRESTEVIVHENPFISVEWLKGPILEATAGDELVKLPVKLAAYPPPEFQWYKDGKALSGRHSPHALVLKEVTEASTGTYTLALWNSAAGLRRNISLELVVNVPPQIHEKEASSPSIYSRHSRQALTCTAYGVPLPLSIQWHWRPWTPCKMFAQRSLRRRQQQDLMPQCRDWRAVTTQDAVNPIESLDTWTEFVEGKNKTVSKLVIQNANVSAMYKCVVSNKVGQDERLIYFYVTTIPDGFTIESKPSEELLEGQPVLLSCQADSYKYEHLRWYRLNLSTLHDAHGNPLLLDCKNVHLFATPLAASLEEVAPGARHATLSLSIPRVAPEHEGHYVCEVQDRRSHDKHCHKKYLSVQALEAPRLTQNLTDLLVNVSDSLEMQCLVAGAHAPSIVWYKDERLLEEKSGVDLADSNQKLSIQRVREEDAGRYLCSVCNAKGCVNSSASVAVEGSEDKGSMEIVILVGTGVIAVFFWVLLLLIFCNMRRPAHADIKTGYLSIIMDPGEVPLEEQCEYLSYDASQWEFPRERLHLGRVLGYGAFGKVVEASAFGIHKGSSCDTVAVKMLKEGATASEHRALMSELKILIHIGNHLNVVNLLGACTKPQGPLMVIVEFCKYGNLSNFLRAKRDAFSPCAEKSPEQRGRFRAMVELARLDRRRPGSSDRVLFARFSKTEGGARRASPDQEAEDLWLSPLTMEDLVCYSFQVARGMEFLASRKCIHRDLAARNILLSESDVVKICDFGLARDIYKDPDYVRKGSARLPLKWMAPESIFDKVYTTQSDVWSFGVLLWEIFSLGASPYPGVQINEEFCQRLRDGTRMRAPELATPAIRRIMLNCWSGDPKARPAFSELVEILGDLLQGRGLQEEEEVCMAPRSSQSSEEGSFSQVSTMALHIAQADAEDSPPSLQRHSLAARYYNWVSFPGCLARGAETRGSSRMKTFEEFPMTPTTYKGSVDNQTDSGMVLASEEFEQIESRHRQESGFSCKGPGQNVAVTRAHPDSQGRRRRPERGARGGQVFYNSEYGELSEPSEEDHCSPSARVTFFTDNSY
Chain of EPHB4 (P54760 16-987): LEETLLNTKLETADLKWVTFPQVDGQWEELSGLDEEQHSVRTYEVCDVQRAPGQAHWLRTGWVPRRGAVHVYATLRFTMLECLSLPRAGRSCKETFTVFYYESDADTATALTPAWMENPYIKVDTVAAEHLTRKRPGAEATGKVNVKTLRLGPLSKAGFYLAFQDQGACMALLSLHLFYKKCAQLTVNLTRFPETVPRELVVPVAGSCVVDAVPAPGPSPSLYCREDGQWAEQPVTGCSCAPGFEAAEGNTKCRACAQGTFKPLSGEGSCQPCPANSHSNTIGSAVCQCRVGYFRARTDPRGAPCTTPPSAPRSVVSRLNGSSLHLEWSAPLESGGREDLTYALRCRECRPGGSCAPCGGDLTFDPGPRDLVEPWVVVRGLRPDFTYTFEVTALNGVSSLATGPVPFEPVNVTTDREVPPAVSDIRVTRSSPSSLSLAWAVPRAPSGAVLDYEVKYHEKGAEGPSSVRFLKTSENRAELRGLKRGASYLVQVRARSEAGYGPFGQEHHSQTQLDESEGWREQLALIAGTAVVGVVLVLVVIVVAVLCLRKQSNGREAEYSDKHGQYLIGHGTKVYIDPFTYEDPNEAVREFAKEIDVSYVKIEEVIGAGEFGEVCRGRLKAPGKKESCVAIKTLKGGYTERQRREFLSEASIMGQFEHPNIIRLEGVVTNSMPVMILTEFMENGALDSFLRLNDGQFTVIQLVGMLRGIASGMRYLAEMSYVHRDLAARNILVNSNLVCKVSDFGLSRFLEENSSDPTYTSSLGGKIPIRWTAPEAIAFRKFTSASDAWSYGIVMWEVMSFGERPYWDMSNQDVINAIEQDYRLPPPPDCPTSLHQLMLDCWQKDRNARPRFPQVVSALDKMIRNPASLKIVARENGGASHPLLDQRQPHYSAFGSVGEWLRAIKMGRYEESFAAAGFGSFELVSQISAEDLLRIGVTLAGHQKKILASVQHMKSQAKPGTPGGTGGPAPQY
Chain of HCK (P08631 whole entry): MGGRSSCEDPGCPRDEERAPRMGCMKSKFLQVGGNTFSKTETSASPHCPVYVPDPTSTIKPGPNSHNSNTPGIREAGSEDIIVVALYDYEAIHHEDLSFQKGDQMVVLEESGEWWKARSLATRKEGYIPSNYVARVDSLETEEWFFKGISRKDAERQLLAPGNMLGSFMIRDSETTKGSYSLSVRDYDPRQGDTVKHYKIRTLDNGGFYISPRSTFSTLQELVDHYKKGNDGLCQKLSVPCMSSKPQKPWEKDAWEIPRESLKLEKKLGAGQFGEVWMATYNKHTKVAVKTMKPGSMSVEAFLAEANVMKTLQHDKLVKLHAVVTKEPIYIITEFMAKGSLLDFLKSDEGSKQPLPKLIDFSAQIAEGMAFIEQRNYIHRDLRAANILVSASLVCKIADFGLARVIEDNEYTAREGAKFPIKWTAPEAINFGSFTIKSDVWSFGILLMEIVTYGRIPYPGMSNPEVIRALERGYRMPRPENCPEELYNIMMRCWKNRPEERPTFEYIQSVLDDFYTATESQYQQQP
Chain of ITK (Q08881 whole entry): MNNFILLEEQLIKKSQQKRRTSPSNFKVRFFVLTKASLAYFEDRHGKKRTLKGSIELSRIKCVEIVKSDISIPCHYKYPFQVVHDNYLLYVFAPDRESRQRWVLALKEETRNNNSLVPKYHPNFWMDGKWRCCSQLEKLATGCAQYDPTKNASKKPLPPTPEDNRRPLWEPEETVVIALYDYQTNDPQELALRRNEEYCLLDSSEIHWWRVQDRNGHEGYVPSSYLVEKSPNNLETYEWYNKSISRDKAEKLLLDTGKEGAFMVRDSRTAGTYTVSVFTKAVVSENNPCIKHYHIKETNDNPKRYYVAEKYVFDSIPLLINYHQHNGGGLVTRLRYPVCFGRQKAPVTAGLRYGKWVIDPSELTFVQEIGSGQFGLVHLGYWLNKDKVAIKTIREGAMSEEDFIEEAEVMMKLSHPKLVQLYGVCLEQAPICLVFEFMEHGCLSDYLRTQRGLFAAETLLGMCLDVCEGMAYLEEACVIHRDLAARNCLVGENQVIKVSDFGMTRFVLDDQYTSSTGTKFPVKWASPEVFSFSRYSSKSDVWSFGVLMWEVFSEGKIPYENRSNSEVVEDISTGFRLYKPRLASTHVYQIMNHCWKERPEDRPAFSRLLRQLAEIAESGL
Chain of SRC (P12931 whole entry): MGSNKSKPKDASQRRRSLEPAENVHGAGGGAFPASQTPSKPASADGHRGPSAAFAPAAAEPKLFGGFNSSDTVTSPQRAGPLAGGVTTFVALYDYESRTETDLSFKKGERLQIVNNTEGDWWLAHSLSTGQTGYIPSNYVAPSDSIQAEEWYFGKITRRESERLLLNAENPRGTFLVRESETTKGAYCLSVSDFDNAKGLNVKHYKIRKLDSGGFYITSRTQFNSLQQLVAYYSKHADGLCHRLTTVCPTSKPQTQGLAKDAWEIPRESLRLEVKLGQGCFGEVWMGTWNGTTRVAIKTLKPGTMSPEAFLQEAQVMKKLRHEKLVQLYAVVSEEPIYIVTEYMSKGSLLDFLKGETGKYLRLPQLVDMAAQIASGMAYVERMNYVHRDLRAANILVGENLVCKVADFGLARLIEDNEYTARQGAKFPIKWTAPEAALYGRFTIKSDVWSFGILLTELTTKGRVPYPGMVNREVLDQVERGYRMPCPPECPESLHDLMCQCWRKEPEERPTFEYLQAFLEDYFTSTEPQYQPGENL

COCCNCc1ccc(-c2cc3nccc(Oc4ccc(NC(=O)C5(C(=O)Nc6ccc(F)cc6)CC5)cc4F)c3s2)nc1 [MGCD516, Sitravatinib]
down-regulation of p-AKT (Ser473) (p-AKT (Ser473)): significant down-regulation of p-AKT (Ser473) | downstream effector pathways p-AKT (Ser473) and p-S6 (Ser235/236) in tumor tissue [1]: significant down-regulation | IC50 (HCK): 1110 nmol/L | IC50 (FAK): > 10000 nmol/L | IC50 (RET): 44 nmol/L | IC50 (PYK2): 364 nmol/L | IC50 (PDGFRα): 30 nmol/L | IC50 (IGF1R): 3980 nmol/L | IC50 (EPHA4): 76 nmol/L | IC50 (ERBB2): > 5000 nmol/L | IC50 (SRC): 156 nmol/L | IC50 (EPHA2): 44 nmol/L | IC50 (ROS): 59 nmol/L | IC50 (ABL): 2990 nmol/L | IC50 (INSR): 5550 nmol/L | colony number (MPNST cell line): significant reduction in colony number | IC50 (FYN): 339 nmol/L | IC50 (BTK): 304 nmol/L | IC50 (DDR2): 0.5 nmol/L | IC50 (TIE2): 274 nmol/L | IC50 (RON): 43 nmol/L | IC50 (FGFR1): > 5000 nmol/L | tumor growth (MPNST xenografts): significant suppression of tumor growth | down-regulation of RTK phosphorylation (phospho-RTK array) [2]: significant down-regulation of RTK phosphorylation | IC50 (JAK3): > 10000 nmol/L | IC50 (VEGFR3 (FLT4)): 2 nmol/L | IC50 (ITK): > 5000 nmol/L | IC50 (ARG): 4100 nmol/L | IC50 (JAK2): > 10000 nmol/L | IC50 (EPHB4): 12 nmol/L | IC50 (YES): 298 nmol/L
